Assays:
[1] = target: T1, full-length B-Catenin (Uniprot ID P35222) (Homo sapiens, UniProt P35222); assay: Alphascreen binding assay (beta-catenin / biotin-TCF4 10-53)
T1 construct: 65 nM full-length B-Catenin (Uniprot ID P35222)
T1 sequence (P35222 1-781): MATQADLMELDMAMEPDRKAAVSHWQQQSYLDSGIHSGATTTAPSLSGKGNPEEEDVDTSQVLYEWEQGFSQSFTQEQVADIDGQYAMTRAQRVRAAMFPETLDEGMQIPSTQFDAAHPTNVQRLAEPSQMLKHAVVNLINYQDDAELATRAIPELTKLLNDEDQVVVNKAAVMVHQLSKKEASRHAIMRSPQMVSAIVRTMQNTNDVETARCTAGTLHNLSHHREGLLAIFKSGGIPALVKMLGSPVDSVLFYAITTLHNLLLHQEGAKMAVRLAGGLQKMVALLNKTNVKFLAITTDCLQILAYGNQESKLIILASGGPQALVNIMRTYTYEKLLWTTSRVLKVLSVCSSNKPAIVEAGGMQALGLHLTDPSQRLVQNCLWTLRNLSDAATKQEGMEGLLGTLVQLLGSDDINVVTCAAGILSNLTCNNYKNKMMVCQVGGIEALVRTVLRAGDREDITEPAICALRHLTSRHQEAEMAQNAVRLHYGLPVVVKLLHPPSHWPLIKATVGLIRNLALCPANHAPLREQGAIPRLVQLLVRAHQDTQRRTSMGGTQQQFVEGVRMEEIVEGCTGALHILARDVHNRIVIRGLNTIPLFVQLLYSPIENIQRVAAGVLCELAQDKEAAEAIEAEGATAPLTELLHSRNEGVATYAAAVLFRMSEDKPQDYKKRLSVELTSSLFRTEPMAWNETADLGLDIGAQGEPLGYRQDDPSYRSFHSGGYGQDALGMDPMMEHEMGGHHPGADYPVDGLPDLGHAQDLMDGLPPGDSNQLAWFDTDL
Method in brief: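 Final concentrations: 65 nM full-length human β-catenin plus 10 nM biotin-TCF4(10-53) peptide, test peptide 3-fold from 10 uM to 5 nM, preincubated 15 min at 20 °C in Tris pH 8.0/250 mM NaCl buffer. Nickel-chelate AlphaScreen donor/acceptor beads then added for 60 min in the dark; duplicate reads fitted to 1:1 binding model with Hill slope.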

CHI Log D procedure = type: physicochemical; conditions: for CHI Log D: pH 7.4; for chromatographic logD: pH 7.4, CHI Log D

| SMILES | EC50 [1] | CHI Log D (CHI Log D procedure) | chromatographic logD (CHI Log D procedure) |
| --- | --- | --- | --- |
| CC(=O)N[C@@H](Cc1ccccc1)C(=O)N[C@@H](CC(=O)O)C(=O)N[C@@H](C)C(=O)N[C@]1(C)CCCCCCC=CCOC(=O)N2CC[C@@](C(=O)N[C@@H](Cc3ccccc3)C(=O)N[C@@H](Cc3c[nH]c4ccccc34)C(=O)N[C@@H](CCC(N)=O)C(N)=O)(C2)NC(=O)[C@H]([C@@H](C)O)NC(=O)[C@H](Cc2ccccc2)NC(=O)[C@H](C)NC(=O)[C@H](C)NC(=O)[C@H](CC(=O)O)NC(=O)[C@H](CC(=O)O)NC1=O [I-221, Ac-Phe-Asp-Ala-R8-Asp-Asp-Ala-Ala-Phe-Thr-PyrS-Phe-Trp-Gln-NH2] | 6.58 µM | 1.34 | – |
| CC(=O)N[C@@H](Cc1ccccc1)C(=O)N[C@@H](CC(=O)O)C(=O)N[C@@H](C)C(=O)N[C@]1(C)CCCCCCC=CCOC(=O)N2CC[C@@](C(=O)N[C@@H](Cc3ccccc3)C(=O)N[C@@H](Cc3c[nH]c4ccccc34)C(=O)N[C@@H](CCC(N)=O)C(N)=O)(C2)NC(=O)[C@H]([C@@H](C)O)NC(=O)[C@H](Cc2ccccc2)NC(=O)[C@H](C)NC(=O)[C@H](C)NC(=O)[C@H](CC(=O)O)NC(=O)[C@H](CC(=O)O)NC1=O [I-222, Ac-Phe-Asp-Ala-R8-Asp-Asp-Ala-Ala-Phe-Thr-PyrS-Phe-Trp-Gln-NH2] | 6.58 µM | 1.34 | – |
| CC(=O)N[C@@H](Cc1ccccc1)C(=O)N[C@@H](CC(=O)O)C(=O)N[C@@H](C)C(=O)N[C@]1(C)CCCCCCC=CCOC(=O)N2CC[C@@](C(=O)N[C@@H](Cc3c(F)c(F)c(F)c(F)c3F)C(=O)N[C@@H](Cc3c[nH]c4ccccc34)C(=O)N[C@@H](CCC(N)=O)C(N)=O)(C2)NC(=O)[C@H](C(C)C)NC(=O)[C@H](Cc2ccccc2)NC(=O)[C@H](C)NC(=O)[C@H](C)NC(=O)[C@H](CC(=O)O)NC(=O)[C@H](CC(=O)O)NC1=O [I-225, Ac-Phe-Asp-Ala-R8-Asp-Asp-Ala-Ala-Phe-Val-PyrS-Pff-Trp-Gln-NH2] | 7.63 µM | 1.497 | – |
| CC(=O)N[C@@H](Cc1ccccc1)C(=O)N[C@@H](CC(=O)O)C(=O)N[C@@H](C)C(=O)N[C@]1(C)CCCCCCC=CCOC(=O)N2CC[C@@](C(=O)N[C@@H](Cc3c(F)c(F)c(F)c(F)c3F)C(=O)N[C@@H](Cc3c[nH]c4ccccc34)C(=O)N[C@@H](CCC(N)=O)C(N)=O)(C2)NC(=O)[C@H](C(C)C)NC(=O)[C@H](Cc2ccccc2)NC(=O)[C@H](C)NC(=O)[C@H](C)NC(=O)[C@H](CC(=O)O)NC(=O)[C@H](CC(=O)O)NC1=O [I-226, Ac-Phe-Asp-Ala-R8-Asp-Asp-Ala-Ala-Phe-Val-PyrS-Pff-Trp-Gln-NH2] | 7.63 µM | 1.497 | – |
| CC(=O)N1CCC[C@]12CC=CCCCC1(CCCC=CCCCCCC[C@@](C)(C(=O)N[C@@H](Cc3ccccc3)C(=O)N[C@@H](Cc3c[nH]c4ccccc34)C(=O)N[C@@H](CCC(N)=O)C(N)=O)NC(=O)[C@H](C(C)C)NC(=O)[C@H](Cc3ccccc3)NC(=O)[C@H](C)NC(=O)[C@H](C)NC(=O)[C@H](Cc3ccc4ccccc4c3)NC(=O)[C@H](CC(=O)O)NC1=O)NC(=O)[C@H](C)NC(=O)[C@H](CC(=O)O)NC2=O (stereo partly drawn) [I-232, Ac-PL3-Asp-Ala-B5-Asp-2NapA-Ala-Ala-Phe-Val-S8-Phe-Trp-Gln-NH2] | 7.64 µM | – | 3.04 |

Next, values leading:

| EC50 [1] | CHI Log D (CHI Log D procedure) | chromatographic logD (CHI Log D procedure) | SMILES |
| --- | --- | --- | --- |
| 4.12 µM | 1.401 | – | CC(=O)N[C@@H](Cc1ccccc1)C(=O)N[C@@H](CC(=O)O)C(=O)N[C@@H](C)C(=O)N[C@]1(C)CCCCCCC=CCOC(=O)N2CC[C@@](C(=O)N[C@@H](Cc3ccccc3)C(=O)N[C@@H](Cc3c[nH]c4ccccc34)C(=O)N[C@@H](CCC(N)=O)C(N)=O)(C2)NC(=O)[C@H]([C@@H](C)O)NC(=O)[C@H](Cc2ccccc2)NC(=O)[C@H](C)NC(=O)[C@H](C)NC(=O)[C@H](CC(=O)O)NC(=O)[C@H](CC(=O)O)NC1=O [I-223, Ac-Phe-Asp-Ala-R8-Asp-Asp-Ala-Ala-Phe-Thr-PyrS-Phe-Trp-Gln-NH2] |
| 4.12 µM | 1.401 | – | CC(=O)N[C@@H](Cc1ccccc1)C(=O)N[C@@H](CC(=O)O)C(=O)N[C@@H](C)C(=O)N[C@]1(C)CCCCCCC=CCOC(=O)N2CC[C@@](C(=O)N[C@@H](Cc3ccccc3)C(=O)N[C@@H](Cc3c[nH]c4ccccc34)C(=O)N[C@@H](CCC(N)=O)C(N)=O)(C2)NC(=O)[C@H]([C@@H](C)O)NC(=O)[C@H](Cc2ccccc2)NC(=O)[C@H](C)NC(=O)[C@H](C)NC(=O)[C@H](CC(=O)O)NC(=O)[C@H](CC(=O)O)NC1=O [I-224, Ac-Phe-Asp-Ala-R8-Asp-Asp-Ala-Ala-Phe-Thr-PyrS-Phe-Trp-Gln-NH2] |
| 5.81 µM | 3.044 | – | CC(=O)N1CCC[C@]12CC=CCCCC1(CCCC=CCCCCCC[C@@](C)(C(=O)N[C@@H](Cc3ccccc3)C(=O)N[C@@H](Cc3c[nH]c4ccccc34)C(=O)N[C@@H](CCC(N)=O)C(N)=O)NC(=O)[C@H](C(C)C)NC(=O)[C@H](Cc3ccccc3)NC(=O)[C@H](C)NC(=O)[C@H](C)NC(=O)[C@H](CCC(=O)O)NC(=O)[C@H](Cc3ccccn3)NC1=O)NC(=O)[C@H](C)NC(=O)[C@H](CC(=O)O)NC2=O (stereo partly drawn) [I-229, Ac-PL3-Asp-Ala-B5-2pyrA-Glu-Ala-Ala-Phe-Val-S8-Phe-Trp-Gln-NH2] |
| 6.53 µM | – | 3.02 | CC(=O)N1CCC[C@]12CC=CCCCC1(CCCC=CCCCCCC[C@@](C)(C(=O)N[C@@H](Cc3ccccc3)C(=O)N[C@@H](Cc3c[nH]c4ccccc34)C(=O)N[C@@H](CCC(N)=O)C(N)=O)NC(=O)[C@H](C(C)C)NC(=O)[C@H](Cc3ccccc3)NC(=O)[C@H](C)NC(=O)[C@H](C)NC(=O)[C@H](Cc3csc4ccccc34)NC(=O)[C@H](CC(=O)O)NC1=O)NC(=O)[C@H](C)NC(=O)[C@H](CC(=O)O)NC2=O (stereo partly drawn) [I-231, Ac-PL3-Asp-Ala-B5-Asp-BztA-Ala-Ala-Phe-Val-S8-Phe-Trp-Gln-NH2] |
| 5.9 µM | – | 2.82 | CC(=O)N1CCC[C@]12CC=CCCCC1(CCCC=CCCCCCC[C@@](C)(C(=O)N[C@@H](Cc3ccccc3)C(=O)N[C@@H](Cc3c[nH]c4ccccc34)C(=O)N[C@@H](CCC(N)=O)C(N)=O)NC(=O)[C@H](C(C)C)NC(=O)[C@H](Cc3ccccc3)NC(=O)[C@H](C)NC(=O)[C@H](C)NC(=O)[C@H](Cc3c[nH]c4ccccc34)NC(=O)[C@H](CC(=O)O)NC1=O)NC(=O)[C@H](C)NC(=O)[C@H](CC(=O)O)NC2=O (stereo partly drawn) [I-233, Ac-PL3-Asp-Ala-B5-Asp-Trp-Ala-Ala-Phe-Val-S8-Phe-Trp-Gln-NH2] |
| 0.384 µM | 2.067 | – | CC(=O)N1CCC[C@]12CC=CCCCC1(CCCC=CCCCCCC[C@@](C)(C(=O)N[C@@H](Cc3ccccc3)C(=O)N[C@@H](Cc3c[nH]c4ccccc34)C(=O)N[C@@H](CCC(N)=O)C(N)=O)NC(=O)[C@H](C(C)C)NC(=O)[C@H](Cc3cccc(C(F)(F)F)c3)NC(=O)[C@H](C)NC(=O)[C@H](C)NC(=O)[C@H](CC(=O)O)NC(=O)[C@H](CC(=O)O)NC1=O)NC(=O)[C@H](C)NC(=O)[C@H](CC(=O)O)NC2=O (stereo partly drawn) [I-236, Ac-PL3-Asp-Ala-B5-Asp-Asp-Ala-Ala-3F3MeF-Val-S8-Phe-Trp-Gln-NH2] |
| 0.384 µM | 2.067 | – | CC(=O)N1CCC[C@]12CC=CCCCC1(CCCC=CCCCCCC[C@@](C)(C(=O)N[C@@H](Cc3ccccc3)C(=O)N[C@@H](Cc3c[nH]c4ccccc34)C(=O)N[C@@H](CCC(N)=O)C(N)=O)NC(=O)[C@H](C(C)C)NC(=O)[C@H](Cc3cccc(C(F)(F)F)c3)NC(=O)[C@H](C)NC(=O)[C@H](C)NC(=O)[C@H](CC(=O)O)NC(=O)[C@H](CC(=O)O)NC1=O)NC(=O)[C@H](C)NC(=O)[C@H](CC(=O)O)NC2=O (stereo partly drawn) [I-237, Ac-PL3-Asp-Ala-B5-Asp-Asp-Ala-Ala-3F3MeF-Val-S8-Phe-Trp-Gln-NH2] |

— US20240116985A1, “STAPLED PEPTIDES AND METHODS THEREOF” (priority 2020, published 2024)
